# Data published in the supplement of paper PMC11208160.
# Assay: recombinant UMI read abundance after kanamycin selection (control-corrected) (log10(CPM+1)); higher = more efficient recombination; extreme values may be limits of the assay; sequences stand for … in AGTGCAGAGAAAATCGGCCAGTTTTCTCTGCCTGCAGTCCGCATGCCGTGGGACCCCTTGGGTTCTAACCTGTTGCCTAGATTTATGCAGCGGACTGCCTTTCTCCCAAAGTGATAAACCGG…AGGTTGGTTTCACT; site = the 11-nt donor
# In short: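 Under IPTG (0.07 mM) plus kanamycin, or without selection, Escherichia coli carrying a UMI-tagged donor and donor-binding-loop pair library and a target plasmid for the IS621 bridge recombinase were plated in two replicates. Recombinant UMIs were PCR-amplified across the donor–target junction and sequenced. Counts were converted to CPM, averaged over replicates, scaled by control-derived factors and reported as log10(CPM+1).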
# 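Also: IS621 bridge recombinase in Escherichia coli cells against a fixed T5 target plasmid.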
row,Sequence,recombinant UMI read abundance (log10)
1,GGTCCCACATGGACCGGTTTTCCCGGTAATCCGTATTTGTA (site GGTCCGACTTA),0.0061
2,GGTCCCACATGGACCGGTTTTCCCGGTAATCCGTATTTGTA (site GGTCCTACTTA),0.0287
3,GGTCGATCATGGACCGGTTTTCCCGGTAATCCGTATTTGCG (site GGTCGATCTCG),0.598
4,GGTCGTCCATGGACCGGTTTTCCCGGTAATCCGTATTTGTA (site GGTCGTCCTTA),0.0245
5,GGTCTAACATGGACCGGTTTTCCCGGTAATCCGTATTTGTA (site GGTCAAACTTA),0.0026
6,GGTCTAACATGGACCGGTTTTCCCGGTAATCCGTATTTGTA (site GGTCCAACTTA),0
7,GGTCTAACATGGACCGGTTTTCCCGGTAATCCGTATTTGTA (site GGTCGAACTTA),0.0128
8,GGTCTAACATGGACCGGTTTTCCCGGTAATCCGTATTTGTA (site GGTCTAACTTA),0.607
9,GGTCTACCATGGACCGGTTTTCCCGGTAATCCGTATTTGCA (site GGTCTACCTTG),0
10,GGTGCTGCATGGACCGGTTTTCCCGGTAATCCGTATTTGTG (site GGTGCTGCTCA),0.0597
11,GGTGGTGCATGGACCGGTTTTCCCGGTAATCCGTATTTGAC (site GGTGGTGCTGT),2.18
12,GGTGTGGCATGGACCGGTTTTCCCGGTAATCCGTATTTGGT (site GGAGTGGCTAC),0.128
13,GGTGTGGCATGGACCGGTTTTCCCGGTAATCCGTATTTGGT (site GGCGTGGCTAC),0.0168
14,GGTGTGGCATGGACCGGTTTTCCCGGTAATCCGTATTTGGT (site GGGGTGGCTAC),0.145
15,GGTGTGGCATGGACCGGTTTTCCCGGTAATCCGTATTTGGT (site GGTGTGGCTAC),0.636
16,GGTGTTACATGGACCGGTTTTCCCGGTAATCCGTATTTGTT (site GGTGTTACTAA),0.51
17,GGTGTTCCATGGACCGGTTTTCCCGGTAATCCGTATTTGGC (site GGTGTTCCTGC),0
18,GGTGTTCCATGGACCGGTTTTCCCGGTAATCCGTATTTGTT (site GGTGTTCCTAA),0.00351
19,GGTTCCGCATGGACCGGTTTTCCCGGTAATCCGTATTTGCG (site GGTTCCGCTCG),0
20,GGTTCGTCATGGACCGGTTTTCCCGGTAATCCGTATTTGTT (site GGTACGTCTAA),0.0147
21,GGTTCGTCATGGACCGGTTTTCCCGGTAATCCGTATTTGTT (site GGTCCGTCTAA),0.0123
22,GGTTCGTCATGGACCGGTTTTCCCGGTAATCCGTATTTGTT (site GGTGCGTCTAA),0.00284
23,GGTTCGTCATGGACCGGTTTTCCCGGTAATCCGTATTTGTT (site GGTTCGTCTAA),0.351

row,Sequence,recombinant UMI read abundance (log10)
1,GGTTTCACATGGACCGGTTTTCCCGGTAATCCGTATTTGTA (site GGTTTCACTTA),0.519
2,GTAAATCCATGGACCGGTTTTCCCGGTAATCCGTATTTGGG (site GTAAATCCTCC),0.325
3,GTAATAACATGGACCGGTTTTCCCGGTAATCCGTATTTGGG (site GTAATAACTCC),0.656
4,GTAATCTCATGGACCGGTTTTCCCGGTAATCCGTATTTGTA (site GTAATCTCTTA),2.83
5,GTACATGCATGGACCGGTTTTCCCGGTAATCCGTATTTGGT (site GTACATGCTAC),1.43
6,GTACATGCATGGACCGGTTTTCCCGGTAATCCGTATTTGGT (site GTCCATGCTAC),0.0463
7,GTACATGCATGGACCGGTTTTCCCGGTAATCCGTATTTGGT (site GTGCATGCTAC),0.0209
8,GTACATGCATGGACCGGTTTTCCCGGTAATCCGTATTTGGT (site GTTCATGCTAC),0.184
9,GTACATTCATGGACCGGTTTTCCCGGTAATCCGTATTTGTG (site GTACATTCTCA),2.5
10,GTACGTACATGGACCGGTTTTCCCGGTAATCCGTATTTGAC (site GTAAGTACTGT),0.00784
11,GTACGTACATGGACCGGTTTTCCCGGTAATCCGTATTTGAC (site GTACGTACTGT),2.51
12,GTACGTACATGGACCGGTTTTCCCGGTAATCCGTATTTGAC (site GTAGGTACTGT),0.0679
13,GTACGTACATGGACCGGTTTTCCCGGTAATCCGTATTTGAC (site GTATGTACTGT),0.00913
14,GTACTCGCATGGACCGGTTTTCCCGGTAATCCGTATTTGCG (site GTAATCGCTCG),0.0162
15,GTACTCGCATGGACCGGTTTTCCCGGTAATCCGTATTTGCG (site GTACTCGCTCG),0.0142
16,GTACTCGCATGGACCGGTTTTCCCGGTAATCCGTATTTGCG (site GTAGTCGCTCG),0.00832
17,GTACTCGCATGGACCGGTTTTCCCGGTAATCCGTATTTGCG (site GTATTCGCTCG),0.00972
18,GTAGACGCATGGACCGGTTTTCCCGGTAATCCGTATTTGCG (site GTAGACGCTCG),2.33
19,GTAGACGCATGGACCGGTTTTCCCGGTAATCCGTATTTGCG (site GTAGCCGCTCG),0.0374
20,GTAGACGCATGGACCGGTTTTCCCGGTAATCCGTATTTGCG (site GTAGGCGCTCG),1.39
21,GTAGACGCATGGACCGGTTTTCCCGGTAATCCGTATTTGCG (site GTAGTCGCTCG),0.182
22,GTAGATTCATGGACCGGTTTTCCCGGTAATCCGTATTTGTT (site GAAGATTCTAA),0.559
23,GTAGATTCATGGACCGGTTTTCCCGGTAATCCGTATTTGTT (site GCAGATTCTAA),1.63

row,Sequence,recombinant UMI read abundance (log10)
1,GTAGATTCATGGACCGGTTTTCCCGGTAATCCGTATTTGTT (site GGAGATTCTAA),0.98
2,GTAGATTCATGGACCGGTTTTCCCGGTAATCCGTATTTGTT (site GTAGATTCTAA),3.02
3,GTAGCTGCATGGACCGGTTTTCCCGGTAATCCGTATTTGTG (site ATAGCTGCTCA),0.436
4,GTAGCTGCATGGACCGGTTTTCCCGGTAATCCGTATTTGTG (site CTAGCTGCTCA),0.54
5,GTAGCTGCATGGACCGGTTTTCCCGGTAATCCGTATTTGTG (site GTAGCTGCTCA),1.06
6,GTAGCTGCATGGACCGGTTTTCCCGGTAATCCGTATTTGTG (site TTAGCTGCTCA),0.0482
7,GTAGGATCATGGACCGGTTTTCCCGGTAATCCGTATTTGAC (site CTAGTATCTGT),0.851
8,GTAGGATCATGGACCGGTTTTCCCGGTAATCCGTATTTGAC (site GTAGGATCTGT),3.19
9,GTAGGCGCATGGACCGGTTTTCCCGGTAATCCGTATTTGAC (site GTAGGCGCTGT),1.9
10,GTAGGCGCATGGACCGGTTTTCCCGGTAATCCGTATTTGCG (site GTAGACGCTCG),2.78
11,GTAGGCGCATGGACCGGTTTTCCCGGTAATCCGTATTTGCG (site GTAGCCGCTCG),0
12,GTAGGCGCATGGACCGGTTTTCCCGGTAATCCGTATTTGCG (site GTAGGCGCTCG),1.47
13,GTAGGCGCATGGACCGGTTTTCCCGGTAATCCGTATTTGCG (site GTAGTCGCTCG),0.407
14,GTAGGGTCATGGACCGGTTTTCCCGGTAATCCGTATTTGTT (site GTAGGGTCTAA),2.38
15,GTAGGTACATGGACCGGTTTTCCCGGTAATCCGTATTTGGC (site GTAGGTACTGA),1.79
16,GTAGGTACATGGACCGGTTTTCCCGGTAATCCGTATTTGGC (site GTAGGTACTGC),2.38
17,GTAGGTACATGGACCGGTTTTCCCGGTAATCCGTATTTGGC (site GTAGGTACTGG),0.159
18,GTAGGTACATGGACCGGTTTTCCCGGTAATCCGTATTTGGC (site GTAGGTACTGT),1.53
19,GTAGGTACATGGACCGGTTTTCCCGGTAATCCGTATTTGTC (site GTAGGTACTGA),1.99
20,GTAGGTACATGGACCGGTTTTCCCGGTAATCCGTATTTGTC (site GTAGGTACTGC),0
21,GTAGGTACATGGACCGGTTTTCCCGGTAATCCGTATTTGTC (site GTAGGTACTGG),1.97
22,GTAGGTACATGGACCGGTTTTCCCGGTAATCCGTATTTGTC (site GTAGGTACTGT),1.35
